Key:
Type in all cases: in vivo
[1] = system: upland rice (Oryza sp., var. Tebonnet, RICE); assay: Pre-emerge test, crop safety; details: crop damage rating 0-100, 14 days after application
In short: (§1)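 Visual ratings on a 0-100 scale (0 no damage, 100 all plants dead) were taken at 14 days after treatment. Rates of 15-1000 g ai/ha in acetone, 187 l/ha, were sprayed onto soil one day after planting (pre-emerge) or onto 2-3 leaf plants with 0.25% v/v surfactant (post-emerge).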

[2] = system: field corn (Zea mays L., var. Dekalb 535, CORN); assay: Pre-emerge test, crop safety; details: crop damage rating 0-100, 14 days after application
In short: as §1

[3] = system: upland rice (Oryza sp., var. Tebonnet, RICE); assay: Post-emerge test, crop safety; details: post-emerge, 14 days after application, rating scale 0-100
In short: (§2)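 Fourteen days after spraying, crop and weed injury was graded visually from 0, no effect, to 100, every plant dead. Test substances were dissolved in acetone and applied at 15–1000 g ai/ha with a flat-fan nozzle. Application was either pre-emergence, one day after sowing, or post-emergence at the 2–3 leaf stage.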

[4] = system: field corn (Zea mays L., var. Dekalb 535, CORN); assay: Post-emerge test, crop safety; details: post-emerge, 14 days after application, rating scale 0-100
In short: as §2

[5] = system: barnyardgrass (Echinochloa crus-galli, ECHCG); assay: Pre-emerge test, greenhouse herbicide activity screening; details: phytotoxicity rating 0-100, 14 days after application
In short: as §2

[6] = system: sicklepod (Cassia obtusifolia, CASOB); assay: as above; details: phytotoxicity rating 0-100, 14 days after application
In short: as §2

[7] = system: ivyleaf morningglory (Ipomoea hederacea, IPOHE); assay: as above; details: phytotoxicity rating 0-100, 14 days after application
In short: as §2

[8] = system: johnsongrass (Sorghum halepense, SORHA); assay: as above; details: phytotoxicity rating 0-100, 14 days after application
In short: as §2

[9] = system: velvetleaf (Abutilon theophrasti, ABUTH); assay: as above; details: phytotoxicity rating 0-100, 14 days after application
In short: as §2

[10] = system: large crabgrass (Digitaria sanguinalis, DIGSA); assay: as above; details: phytotoxicity rating 0-100, 14 days after application
In short: as §2

[11] = system: green foxtail (Setaria viridis, SETVI); assay: as above; details: phytotoxicity rating 0-100, 14 days after application
In short: as §2

[12] = system: lambsquarters (Chenopodium album, CHEAL); assay: as above; details: phytotoxicity rating 0-100, 14 days after application
In short: as §2

[13] = system: barnyardgrass (Echinochloa crus-galli, ECHCG); assay: Post-emerge test, greenhouse herbicide activity screening; details: post-emerge, 14 days after application, rating scale 0-100
In short: (§3)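 Plants grown in 10 cm pots of sandy loam mix received acetone-dissolved compounds through a moving flat-fan nozzle. Doses ranged from 15 to 1000 g ai/ha. Pre-emerge pots were seeded one day earlier, post-emerge pots 8–21 days earlier. Fourteen days on, each pot was graded 0–100 for damage.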

[14] = system: sicklepod (Cassia obtusifolia, CASOB); assay: as above; details: post-emerge, 14 days after application, rating scale 0-100
In short: as §3

[15] = system: ivyleaf morningglory (Ipomoea hederacea, IPOHE); assay: as above; details: post-emerge, 14 days after application, rating scale 0-100
In short: as §3

[16] = system: johnsongrass (Sorghum halepense, SORHA); assay: as above; details: post-emerge, 14 days after application, rating scale 0-100
In short: as §3

[17] = system: velvetleaf (Abutilon theophrasti, ABUTH); assay: as above; details: post-emerge, 14 days after application, rating scale 0-100
In short: as §3

[18] = system: large crabgrass (Digitaria sanguinalis, DIGSA); assay: as above; details: post-emerge, 14 days after application, rating scale 0-100
In short: as §3

[19] = system: green foxtail (Setaria viridis, SETVI); assay: as above; details: post-emerge, 14 days after application, rating scale 0-100
In short: as §3

[20] = system: lambsquarters (Chenopodium album, CHEAL); assay: as above; details: post-emerge, 14 days after application, rating scale 0-100
In short: as §3

[21] = system: redroot pigweed (Amaranthus retroflexus, AMARE); assay: as above; details: post-emerge, 14 days after application
In short: as §3

[22] = system: redroot pigweed (Amaranthus retroflexus, AMARE); assay: Pre-emerge test, greenhouse herbicide activity screening; details: phytotoxicity rating 0-100, 14 days after application
In short: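 Sandy loam pots; pre-emerge: sown 1 d pre-spray, surface-watered after, then bottom-watered. Post-emerge: sown 8–21 d before, 2–3 leaf stage, + 0.25% v/v NIS, bottom-watered. Acetone, 187 l/ha track spray, 15–1000 g ai/ha. 0–100 injury score, day 14.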

[23] = 63 g ai/ha, rating scale 0-100 (0 no damage, 100 complete death)
[24] = 250 g ai/ha, rating scale 0-100

Cc1ccc(OC(=O)Nc2c(C)c(Cl)cc(F)c2-n2c(=O)cc(C(F)(F)F)n(C)c2=O)cc1C [4-53]
Pre-emerge Herbicidal Activity RICE ([1]; 63 g ai/ha): 10 | Pre-emerge Herbicidal Activity RICE ([1]; 250 g ai/ha): 50 | Pre-emerge Herbicidal Activity CORN ([2]; 63 g ai/ha): 0 | Pre-emerge Herbicidal Activity CORN ([2]; 250 g ai/ha): 25 | phytotoxicity rating RICE (crop damage) ([3]; 63 g ai/ha): 30 | phytotoxicity rating RICE (crop damage) ([3]; 250 g ai/ha): 65 | phytotoxicity rating CORN (crop damage) ([4]; 63 g ai/ha): 5 | phytotoxicity rating CORN (crop damage) ([4]; 250 g ai/ha): 70 | Pre-emerge Herbicidal Activity ECHCG ([5]; 63 g ai/ha): 10 | Pre-emerge Herbicidal Activity ECHCG ([5]; 250 g ai/ha): 85 | Pre-emerge Herbicidal Activity CASOB ([6]; 63 g ai/ha): 20 | Pre-emerge Herbicidal Activity CASOB ([6]; 250 g ai/ha): 60 | Pre-emerge Herbicidal Activity IPOHE ([7]; 63 g ai/ha): 30 | Pre-emerge Herbicidal Activity IPOHE ([7]; 250 g ai/ha): 80 | Pre-emerge Herbicidal Activity SORHA ([8]; 63 g ai/ha): 30 | Pre-emerge Herbicidal Activity SORHA ([8]; 250 g ai/ha): 85 | Pre-emerge Herbicidal Activity ABUTH ([9]; 63 g ai/ha): 100 | Pre-emerge Herbicidal Activity ABUTH ([9]; 250 g ai/ha): 100 | Pre-emerge Herbicidal Activity DIGSA ([10]; 63 g ai/ha): 40 | Pre-emerge Herbicidal Activity DIGSA ([10]; 250 g ai/ha): 100 | Pre-emerge Herbicidal Activity SETVI ([11]; 63 g ai/ha): 80 | Pre-emerge Herbicidal Activity SETVI ([11]; 250 g ai/ha): 100 | Pre-emerge Herbicidal Activity CHEAL ([12]; 63 g ai/ha): 100 | Pre-emerge Herbicidal Activity CHEAL ([12]; 250 g ai/ha): 100 | phytotoxicity rating ECHCG ([13]; 63 g ai/ha): 0 | phytotoxicity rating ECHCG ([13]; 250 g ai/ha): 60 | phytotoxicity rating CASOB ([14]; 63 g ai/ha): 30 | phytotoxicity rating CASOB ([14]; 250 g ai/ha): 90 | phytotoxicity rating IPOHE ([15]; 63 g ai/ha): 100 | phytotoxicity rating IPOHE ([15]; 250 g ai/ha): 100 | phytotoxicity rating SORHA ([16]; 63 g ai/ha): 0 | phytotoxicity rating SORHA ([16]; 250 g ai/ha): 40 | phytotoxicity rating ABUTH ([17]; 63 g ai/ha): 100 | phytotoxicity rating ABUTH ([17]; 250 g ai/ha): 100 | phytotoxicity rating DIGSA ([18]; 63 g ai/ha): 0 | phytotoxicity rating DIGSA ([18]; 250 g ai/ha): 40 | phytotoxicity rating SETVI ([19]; 63 g ai/ha): 10 | phytotoxicity rating SETVI ([19]; 250 g ai/ha): 70 | phytotoxicity rating CHEAL ([20]; 63 g ai/ha): 60 | phytotoxicity rating CHEAL ([20]; 250 g ai/ha): 90 | phytotoxicity rating AMARE [21, 23]: 70 | phytotoxicity rating AMARE [21, 24]: 100 | Pre-emerge Herbicidal Activity AMARE ([22]; 63 g ai/ha): 100 | Pre-emerge Herbicidal Activity AMARE ([22]; 250 g ai/ha): 100

Cc1c(Cl)cc(F)c(-n2c(=O)cc(C(F)(F)F)n(C)c2=O)c1NC(=O)OCc1ccccc1Cl [4-54]
Pre-emerge Herbicidal Activity RICE ([1]; 63 g ai/ha): 10 | Pre-emerge Herbicidal Activity RICE ([1]; 250 g ai/ha): 60 | Pre-emerge Herbicidal Activity CORN ([2]; 63 g ai/ha): 0 | Pre-emerge Herbicidal Activity CORN ([2]; 250 g ai/ha): 5 | phytotoxicity rating RICE (crop damage) ([3]; 63 g ai/ha): 90 | phytotoxicity rating RICE (crop damage) ([3]; 250 g ai/ha): 100 | phytotoxicity rating CORN (crop damage) ([4]; 63 g ai/ha): 40 | phytotoxicity rating CORN (crop damage) ([4]; 250 g ai/ha): 75 | Pre-emerge Herbicidal Activity ECHCG ([5]; 63 g ai/ha): 50 | Pre-emerge Herbicidal Activity ECHCG ([5]; 250 g ai/ha): 85 | Pre-emerge Herbicidal Activity CASOB ([6]; 63 g ai/ha): 30 | Pre-emerge Herbicidal Activity CASOB ([6]; 250 g ai/ha): 80 | Pre-emerge Herbicidal Activity IPOHE ([7]; 63 g ai/ha): 30 | Pre-emerge Herbicidal Activity IPOHE ([7]; 250 g ai/ha): 70 | Pre-emerge Herbicidal Activity SORHA ([8]; 63 g ai/ha): 30 | Pre-emerge Herbicidal Activity SORHA ([8]; 250 g ai/ha): 80 | Pre-emerge Herbicidal Activity ABUTH ([9]; 63 g ai/ha): 100 | Pre-emerge Herbicidal Activity ABUTH ([9]; 250 g ai/ha): 90 | Pre-emerge Herbicidal Activity DIGSA ([10]; 63 g ai/ha): 60 | Pre-emerge Herbicidal Activity DIGSA ([10]; 250 g ai/ha): 100 | Pre-emerge Herbicidal Activity SETVI ([11]; 63 g ai/ha): 90 | Pre-emerge Herbicidal Activity SETVI ([11]; 250 g ai/ha): 100 | Pre-emerge Herbicidal Activity CHEAL ([12]; 63 g ai/ha): 90 | Pre-emerge Herbicidal Activity CHEAL ([12]; 250 g ai/ha): 100 | phytotoxicity rating ECHCG ([13]; 63 g ai/ha): 70 | phytotoxicity rating ECHCG ([13]; 250 g ai/ha): 80 | phytotoxicity rating CASOB ([14]; 63 g ai/ha): 90 | phytotoxicity rating CASOB ([14]; 250 g ai/ha): 100 | phytotoxicity rating IPOHE ([15]; 63 g ai/ha): 100 | phytotoxicity rating IPOHE ([15]; 250 g ai/ha): 100 | phytotoxicity rating SORHA ([16]; 63 g ai/ha): 40 | phytotoxicity rating SORHA ([16]; 250 g ai/ha): 70 | phytotoxicity rating ABUTH ([17]; 63 g ai/ha): 100 | phytotoxicity rating ABUTH ([17]; 250 g ai/ha): 100 | phytotoxicity rating DIGSA ([18]; 63 g ai/ha): 30 | phytotoxicity rating DIGSA ([18]; 250 g ai/ha): 60 | phytotoxicity rating SETVI ([19]; 63 g ai/ha): 80 | phytotoxicity rating SETVI ([19]; 250 g ai/ha): 90 | phytotoxicity rating CHEAL ([20]; 63 g ai/ha): 100 | phytotoxicity rating CHEAL ([20]; 250 g ai/ha): 100 | phytotoxicity rating AMARE [21, 23]: 100 | phytotoxicity rating AMARE [21, 24]: 100 | Pre-emerge Herbicidal Activity AMARE ([22]; 63 g ai/ha): 100 | Pre-emerge Herbicidal Activity AMARE ([22]; 250 g ai/ha): 100
